Laboratory results taken from EP3046573B1, “AMYLIN ANALOGUES” (Zealand Pharma A/S, priority 2013, dated 2015).
Like-named read-outs stand apart in the source and are kept apart here. Numbered stars: 1 amine (or outer) side, 2 acyl side, 3 side chain; on linkers, the order of the positions; unused ones are H or OH. Bridge positions count the residues as written; N and C are the ends. Square brackets hold non-standard residues; d marks the D form. Peptide text beside a SMILES is read from it. * marks the point of attachment. C20 diacid = O=C(O)CCCCCCCCCCCCCCCCCCC(=O)*; γGlu = O=C(O)[C@H](CCC(=O)[*:2])N[*:1]; NMeI = CC[C@H](C)[C@H](NC)C(=O)O; Sar = CNCC(=O)O

Experiments:
[1] = target: T1, human calcitonin receptor (hCTR2) (Homo sapiens, UniProt P30988); assay: hCTR2 assay: induction of cAMP (AlphaScreen cAMP Assay kit) in COS7 cells expressing hCTR2; assay type: cell-based; details: cAMP induction in COS7 cells expressing hCTR2; average of a minimum of 3 determinations; read-out: hCTR2 EC50
T1 construct: expressed in transfected cells
T1 sequence (P30988 25-474): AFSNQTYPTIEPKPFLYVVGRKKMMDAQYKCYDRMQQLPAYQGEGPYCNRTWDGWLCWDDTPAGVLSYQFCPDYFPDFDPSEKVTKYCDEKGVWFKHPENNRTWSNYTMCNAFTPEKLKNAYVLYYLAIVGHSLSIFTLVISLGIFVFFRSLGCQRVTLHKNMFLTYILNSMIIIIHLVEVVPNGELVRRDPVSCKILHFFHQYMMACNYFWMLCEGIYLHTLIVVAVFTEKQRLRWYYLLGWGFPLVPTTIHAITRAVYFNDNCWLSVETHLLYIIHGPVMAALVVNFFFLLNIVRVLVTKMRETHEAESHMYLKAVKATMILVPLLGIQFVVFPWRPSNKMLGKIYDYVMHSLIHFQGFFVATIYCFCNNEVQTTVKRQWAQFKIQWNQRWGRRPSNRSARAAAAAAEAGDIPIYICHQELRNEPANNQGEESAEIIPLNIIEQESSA
Outline: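 Cells were seeded one day ahead, washed, then exposed to rising peptide concentrations for 15 min at 37° C in the presence of 100 µM IBMX. After lysis for 10 min at room temperature, cAMP was quantified by AlphaScreen and EC50 values derived by 4PL fitting.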

[2] = target: T2, human amylin receptor 3 (hAMYR3) consisting of hCTR2 co-expressed with human Receptor Activity Modifying Protein 3 (hRAMP3) (Homo sapiens, UniProt O60896+P30988); assay: hAMYR3 assay: induction of cAMP (AlphaScreen cAMP Assay kit) in COS7 cells expressing hAMYR3; assay type: cell-based
T2 construct: expressed in transfected cells
T2 sequence (P30988 25-474): T1 sequence (P30988 25-474)
T2 sequence (O60896 24-148 partner): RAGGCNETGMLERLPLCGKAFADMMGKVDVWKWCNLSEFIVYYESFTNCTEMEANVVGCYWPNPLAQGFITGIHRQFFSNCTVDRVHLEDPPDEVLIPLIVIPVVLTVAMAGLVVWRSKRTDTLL
Outline: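 cAMP accumulation read by AlphaScreen in lysates of RAMP-naive COS7 cells stably transfected with hCTR2 plus hRAMP3. Cells exposed to peptide dilutions for 15 min, 37° C, with 100 µM IBMX; 4PL fitting gave EC50 and efficacy relative to pramlintide.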

[3] = Solubility assessment (turbidity absorbance at 325 nm); assay type: physicochemical; details: stock 2 mg/ml diluted 1:1, ambient temperature (typically 25°C), n=1; for Solubility, Acetate buffer pH 4: 100 mM acetate buffer pH 4.0; for Solubility, Acetate buffer pH 5: 100 mM acetate buffer pH 5.0; for Solubility, Histidine buffer pH 6: 100 mM histidine buffer pH 6.0; for Solubility, Histidine buffer pH 7: 100 mM histidine buffer pH 7.0; for Solubility, Phosphate buffer pH 6: 100 mM phosphate buffer pH 6.0; for Solubility, Phosphate buffer pH 7: 100 mM phosphate buffer pH 7.0; for Solubility, Phosphate buffer pH 7.5: 100 mM phosphate buffer pH7.5
Outline: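 Read-out: turbidity as absorbance at 325 nm (280 nm also read), single samples, ambient temperature of typically 25°C. Samples were a 1:1 mix of 2 mg/ml stock (water, pH 2.5) with 100 mM acetate, histidine or phosphate buffers spanning pH 4.0–7.5. Cut-off: A325 ≤ 0.02 indicates ≥ 1 mg/ml.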

[4] = cAMP induction in COS7 cells expressing hAMYR3, average of a minimum of 3 determinations, read-out: hAMY R3 EC50

EC50 [1] | EC50 [2, 4] | Solubility, Acetate buffer pH 4 [3] | Solubility, Acetate buffer pH 5 [3] | Solubility, Histidine buffer pH 6 [3] | Solubility, Histidine buffer pH 7 [3] | Solubility, Phosphate buffer pH 6 [3] | Solubility, Phosphate buffer pH 7 [3] | Solubility, Phosphate buffer pH 7.5 [3] | SMILES | EC50 [2]
110 pM | 130 pM | SS (SS indicates solubility ≥ 1mg/ml) | SS (SS indicates solubility ≥ 1mg/ml) | SS (SS indicates solubility ≥ 1mg/ml) | SS (SS indicates solubility ≥ 1mg/ml) | SS (SS indicates solubility ≥ 1mg/ml) | SS (SS indicates solubility ≥ 1mg/ml) | SS (SS indicates solubility ≥ 1mg/ml) | CC[C@H](C)[C@@H](C(=O)N[C@@H](CC(C)C)C(=O)N[C@@H](CO)C(=O)N[C@@H](CO)C(=O)N[C@H](C(=O)N[C@@H](CCC(=O)O)C(=O)N[C@H](C(=O)NCC(=O)N[C@@H](CO)C(=O)N[C@@H](CCC(=O)O)C(=O)N[C@H](C(=O)N1CCC[C@H]1C(N)=O)[C@@H](C)O)C(C)C)[C@@H](C)O)N(C)C(=O)[C@H](C)NC(=O)CN(C)C(=O)[C@H](Cc1ccccc1)NC(=O)[C@H](CO)NC(=O)[C@H](CO)NC(=O)[C@H](CO)NC(=O)[C@H](CO)NC(=O)[C@H](CCCNC(=N)N)NC(=O)[C@H](Cc1c[nH]cn1)NC(=O)[C@H](CC(C)C)NC(=O)[C@H](Cc1ccccc1)NC(=O)[C@H](CCC(=O)O)NC(=O)[C@H](C)NC(=O)[C@H](CC(C)C)NC(=O)[C@H](CCCNC(=N)N)NC(=O)[C@H](CO)NC(=O)[C@@H](NC(=O)[C@H](C)NC(=O)[C@@H]1CSSC[C@H](NC(=O)[C@H](CCCNC(=N)N)NC(=O)CC[C@H](NC(=O)CCCCCCCCCCCCCCCCCCC(=O)O)C(=O)O)C(=O)NCC(=O)N[C@@H]([C@@H](C)O)C(=O)N[C@@H](C)C(=O)N[C@@H]([C@@H](C)O)C(=O)N1)[C@@H](C)O [Compound 141, [19CD]-isoGlu-RC()GTATC()ATSRLAEFLHRSSSSF-Gly(Me)-A-Ile(Me)-LSSTEVGSETP-NH2] ({C20 diacid-γGlu}-RCGTATCATSRLAEFLHRSSSSF[Sar]A[NMeI]LSSTEVGSETP-NH2; disulfide 2-7) | –
260 pM | 440 pM | SS (SS indicates solubility ≥ 1mg/ml) | SS (SS indicates solubility ≥ 1mg/ml) | SS (SS indicates solubility ≥ 1mg/ml) | SS (SS indicates solubility ≥ 1mg/ml) | SS (SS indicates solubility ≥ 1mg/ml) | SS (SS indicates solubility ≥ 1mg/ml) | SS (SS indicates solubility ≥ 1mg/ml) | CC[C@H](C)[C@@H](C(=O)N[C@@H](CC(C)C)C(=O)N[C@@H](CO)C(=O)N[C@@H](CO)C(=O)N[C@H](C(=O)N[C@@H](CCC(=O)O)C(=O)N[C@H](C(=O)NCC(=O)N[C@@H](CO)C(=O)N[C@@H](CCC(=O)O)C(=O)N[C@H](C(=O)N1CCC[C@H]1C(N)=O)[C@@H](C)O)C(C)C)[C@@H](C)O)N(C)C(=O)[C@H](C)NC(=O)CN(C)C(=O)[C@H](Cc1ccccc1)NC(=O)[C@H](CO)NC(=O)[C@H](CO)NC(=O)[C@H](CO)NC(=O)[C@H](CO)NC(=O)[C@H](CCCNC(=N)N)NC(=O)[C@H](Cc1c[nH]cn1)NC(=O)[C@H](CC(C)C)NC(=O)[C@H](Cc1ccccc1)NC(=O)[C@H](CCC(=O)O)NC(=O)[C@H](C)NC(=O)[C@H](CC(C)C)NC(=O)[C@H](CCCNC(=N)N)NC(=O)[C@@H]1CCCN1C(=O)[C@@H](NC(=O)[C@H](C)NC(=O)[C@@H]1CSSC[C@H](NC(=O)[C@H](CCCNC(=N)N)NC(=O)CC[C@H](NC(=O)CCCCCCCCCCCCCCCCCCC(=O)O)C(=O)O)C(=O)N2CCC[C@H]2C(=O)N[C@@H]([C@@H](C)O)C(=O)N[C@@H](C)C(=O)N[C@@H]([C@@H](C)O)C(=O)N1)[C@@H](C)O [Compound 143, [19CD]-isoGlu-RC()PTATC()ATPRLAEFLHRSSSSF-Gly(Me)-A-Ile(Me)-LSSTEVGSETP-NH2] ({C20 diacid-γGlu}-RCPTATCATPRLAEFLHRSSSSF[Sar]A[NMeI]LSSTEVGSETP-NH2; disulfide 2-7) | –
110 pM | 240 pM | SS (SS indicates solubility ≥ 1mg/ml) | SS (SS indicates solubility ≥ 1mg/ml) | SS (SS indicates solubility ≥ 1mg/ml) | SS (SS indicates solubility ≥ 1mg/ml) | SS (SS indicates solubility ≥ 1mg/ml) | SS (SS indicates solubility ≥ 1mg/ml) | SS (SS indicates solubility ≥ 1mg/ml) | CC[C@H](C)[C@@H](C(=O)N[C@@H](CC(C)C)C(=O)N[C@@H](CO)C(=O)N[C@@H](CO)C(=O)N[C@H](C(=O)N[C@@H](CCC(=O)O)C(=O)N[C@H](C(=O)NCC(=O)N[C@@H](CO)C(=O)N[C@@H](CCC(=O)O)C(=O)N[C@H](C(=O)N1CCC[C@H]1C(N)=O)[C@@H](C)O)C(C)C)[C@@H](C)O)N(C)C(=O)[C@H](C)NC(=O)CN(C)C(=O)[C@H](Cc1ccccc1)NC(=O)[C@H](CO)NC(=O)[C@H](CO)NC(=O)[C@H](CO)NC(=O)[C@H](CO)NC(=O)[C@H](CCCNC(=N)N)NC(=O)[C@H](Cc1c[nH]cn1)NC(=O)[C@H](CC(C)C)NC(=O)[C@H](Cc1ccccc1)NC(=O)[C@H](CCC(=O)O)NC(=O)[C@H](C)NC(=O)[C@H](CC(C)C)NC(=O)[C@H](CCCNC(=N)N)NC(=O)[C@H](C)NC(=O)[C@@H](NC(=O)[C@H](C)NC(=O)[C@@H]1CSSC[C@H](NC(=O)[C@H](CCCNC(=N)N)NC(=O)CC[C@H](NC(=O)CCCCCCCCCCCCCCCCCCC(=O)O)C(=O)O)C(=O)N[C@@H](CO)C(=O)N[C@@H]([C@@H](C)O)C(=O)N[C@@H](C)C(=O)N[C@@H]([C@@H](C)O)C(=O)N1)[C@@H](C)O [Compound 144, [19CD]-isoGlu-RC()STATC()ATARLAEFLHRSSSSF-Gly(Me)-A-Ile(Me)-LSSTEVGSETP-NH2] ({C20 diacid-γGlu}-RCSTATCATARLAEFLHRSSSSF[Sar]A[NMeI]LSSTEVGSETP-NH2; disulfide 2-7) | –

SMILES | EC50 [1] | EC50 [2, 4] | Solubility, Acetate buffer pH 4 [3] | Solubility, Acetate buffer pH 5 [3] | Solubility, Histidine buffer pH 6 [3] | Solubility, Histidine buffer pH 7 [3] | Solubility, Phosphate buffer pH 6 [3] | Solubility, Phosphate buffer pH 7 [3] | Solubility, Phosphate buffer pH 7.5 [3] | EC50 [2]
CC[C@H](C)[C@@H](C(=O)N[C@@H](CC(C)C)C(=O)N[C@@H](CO)C(=O)N[C@@H](CO)C(=O)N[C@H](C(=O)N[C@@H](CCC(=O)O)C(=O)N[C@H](C(=O)NCC(=O)N[C@@H](CO)C(=O)N[C@@H](CCC(=O)O)C(=O)N[C@H](C(=O)N1CCC[C@H]1C(N)=O)[C@@H](C)O)C(C)C)[C@@H](C)O)N(C)C(=O)[C@H](C)NC(=O)CN(C)C(=O)[C@H](Cc1ccccc1)NC(=O)[C@H](CO)NC(=O)[C@H](CO)NC(=O)[C@H](CO)NC(=O)[C@H](CO)NC(=O)[C@H](CCCNC(=N)N)NC(=O)[C@H](Cc1c[nH]cn1)NC(=O)[C@H](CC(C)C)NC(=O)[C@H](Cc1ccccc1)NC(=O)[C@H](CCC(=O)O)NC(=O)[C@H](C)NC(=O)[C@H](CC(C)C)NC(=O)[C@H](CCCNC(=N)N)NC(=O)[C@H](C)NC(=O)[C@@H](NC(=O)[C@H](C)NC(=O)[C@@H]1CSSC[C@H](NC(=O)[C@H](CCCNC(=N)N)NC(=O)CC[C@H](NC(=O)CCCCCCCCCCCCCCCCCCC(=O)O)C(=O)O)C(=O)N[C@@H](CC(=O)O)C(=O)N[C@@H]([C@@H](C)O)C(=O)N[C@@H](C)C(=O)N[C@@H]([C@@H](C)O)C(=O)N1)[C@@H](C)O [Compound 145, [19CD]-isoGlu-RC()DTATC()ATARLAEFLHRSSSSF-Gly(Me)-A-Ile(Me)-LSSTEVGSETP-NH2] ({C20 diacid-γGlu}-RCDTATCATARLAEFLHRSSSSF[Sar]A[NMeI]LSSTEVGSETP-NH2; disulfide 2-7) | 92 pM | – | SS (SS indicates solubility ≥ 1mg/ml) | SS (SS indicates solubility ≥ 1mg/ml) | SS (SS indicates solubility ≥ 1mg/ml) | SS (SS indicates solubility ≥ 1mg/ml) | SS (SS indicates solubility ≥ 1mg/ml) | SS (SS indicates solubility ≥ 1mg/ml) | SS (SS indicates solubility ≥ 1mg/ml) | 220 pM
